Test results from patent US20190016689A1, “NOVEL FLUORINATED QUINAZOLINE DERIVATIVES AS EGFR INHIBITORS” (TRILLIUM THERAPEUTICS INC., priority 2016, published 2019).

Molecular target: EGFR (T790M) (Homo sapiens, UniProt P00533, T790M, form not given)
Sequence (P00533 whole entry T790M, form open): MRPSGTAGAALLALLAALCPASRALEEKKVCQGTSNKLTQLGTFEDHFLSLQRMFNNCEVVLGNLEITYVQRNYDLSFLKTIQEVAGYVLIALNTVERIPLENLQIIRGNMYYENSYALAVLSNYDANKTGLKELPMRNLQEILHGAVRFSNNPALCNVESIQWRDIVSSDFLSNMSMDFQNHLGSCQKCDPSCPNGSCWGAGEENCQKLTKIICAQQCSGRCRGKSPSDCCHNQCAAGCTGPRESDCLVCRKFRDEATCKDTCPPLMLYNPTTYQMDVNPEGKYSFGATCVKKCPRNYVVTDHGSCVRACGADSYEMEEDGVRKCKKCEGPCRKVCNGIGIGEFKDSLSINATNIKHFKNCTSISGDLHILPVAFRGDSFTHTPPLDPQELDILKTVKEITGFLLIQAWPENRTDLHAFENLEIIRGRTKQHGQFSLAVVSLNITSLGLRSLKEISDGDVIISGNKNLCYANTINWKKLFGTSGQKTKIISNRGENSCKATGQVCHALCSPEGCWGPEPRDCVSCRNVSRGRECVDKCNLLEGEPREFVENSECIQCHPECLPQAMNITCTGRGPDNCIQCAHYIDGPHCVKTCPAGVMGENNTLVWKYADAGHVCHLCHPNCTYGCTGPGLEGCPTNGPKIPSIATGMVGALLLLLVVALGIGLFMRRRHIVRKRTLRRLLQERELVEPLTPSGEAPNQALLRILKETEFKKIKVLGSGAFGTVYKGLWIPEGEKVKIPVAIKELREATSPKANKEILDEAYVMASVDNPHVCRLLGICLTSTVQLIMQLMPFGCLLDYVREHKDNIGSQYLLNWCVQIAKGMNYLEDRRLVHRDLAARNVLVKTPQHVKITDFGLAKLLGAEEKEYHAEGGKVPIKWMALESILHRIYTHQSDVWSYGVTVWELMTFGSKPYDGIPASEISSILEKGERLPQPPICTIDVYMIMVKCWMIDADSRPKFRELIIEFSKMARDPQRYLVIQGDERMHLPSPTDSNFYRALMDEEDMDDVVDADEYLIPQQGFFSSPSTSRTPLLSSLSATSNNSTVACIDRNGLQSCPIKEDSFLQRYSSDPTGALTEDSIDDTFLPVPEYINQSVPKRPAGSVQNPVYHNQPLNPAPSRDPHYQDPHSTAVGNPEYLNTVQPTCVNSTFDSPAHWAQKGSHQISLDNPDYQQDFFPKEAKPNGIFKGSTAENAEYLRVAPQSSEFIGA
Assay: Kinase HotSpot profiling (33P-ATP filter binding)
Format: biochemical
Details: not given
Experimental: Base Reaction buffer; 20 mM Hepes (pH 7.5), 10 mM MgCl2, 1 mM EGTA, 0.02% Brij35, 0.02 mg/ml BSA, 0.1 mM Na3VO4, 2 mM DTT, 1% DMSO • Required cofactors are added individually to each kinase reaction
1. The indicated substrate was prepared in fresh Base Reaction Buffer.
2. Any required cofactors were added to the substrate solution above.
3. Indicated kinase was added into the substrate solution and gently mixed.
4. Compounds in DMSO were added into the kinase reaction mixture by Acoustic technology (Echo550; nanoliter range) and incubated for 20 minutes at room temperature.
5. 33P-ATP (specific activity 10 μCi/μl) was added into the reaction mixture to initiate the reaction.
6. The kinase reaction was incubated for 2 hours at room temperature
7. Reactions were spotted onto P81 ion exchange paper.
8. Kinase activity was detected by filter-binding method.
IC50 (nM) concentrations are illustrated in Table 5. This assay confirms that compounds of the application are effective inhibitors of the target EGFR receptors.
Compound O=C(/C=C/CN1CCC(OC(F)F)CC1)Nc1cc2c(Nc3ccc(F)c(Cl)c3)ncnc2cc1OCCOC(F)F [Example I-22, (E)-N-[4-(3-chloro-4-fluoro-anilino)-7-[2-(difluoromethoxy)ethoxy]quinazolin-6-yl]-4-[4-(difluoromethoxy)-1-piperidyl]but-2-enamide] has an IC50 of 13.1 nM. For COc1cc2ncnc(Nc3ccc(F)c(Cl)c3)c2cc1NC(=O)/C=C/CN1CCC(OC(F)F)CC1 [Example I-18, (E)-N-[4-(3-chloro-4-fluoro-anilino)-7-methoxy-quinazolin-6-yl]-4-[4-(difluoromethoxy)-1-piperidyl]but-2-enamide], the IC50 was 62.8 nM. For O=C(/C=C/CN1CCOCC1)Nc1cc2c(Nc3ccc(Cl)c(Cl)c3F)ncnc2cc1OCCOC(F)F [Example I-3, (E)-N-[4-(3,4-dichloro-2-fluoro-anilino)-7-[2-(difluoromethoxy)ethoxy]quinazolin-6-yl]-4-morpholino-but-2-enamide], the IC50 was 5.56 nM. For O=C(/C=C/CN1CC(F)(F)C1)Nc1cc2c(Nc3ccc(F)c(Cl)c3F)ncnc2cc1OCCOC(F)F [Example I-16, (E)-N-[4-(3-chloro-2,4-difluoro-anilino)-7-[2-(difluoromethoxy)ethoxy]quinazolin-6-yl]-4-(3,3-difluoroazetidin-1-yl)but-2-enamide], the IC50 was 13.7 nM. O=C(/C=C/CN1CCCCC1)Nc1cc2c(Nc3ccc(F)c(Cl)c3F)ncnc2cc1OCCOC(F)F [Example I-10, (E)-N-[4-(3-chloro-2,4-difluoro-anilino)-7-[2-(difluoromethoxy)ethoxy]quinazolin-6-yl]-4-(1-piperidyl)but-2-enamide] showed an IC50 of 0.156 nM. With CN(C)C/C=C/C(=O)Nc1cc2c(Nc3ccc(F)c(Cl)c3F)ncnc2cc1OCCOC(F)F [Example I-9, (E)-N-[4-(3-chloro-2,4-difluoro-anilino)-7-[2-(difluoromethoxy)-ethoxy]quinazolin-6-yl]-4-(dimethylamino)but-2-enamide] the IC50 was 0.0597 nM. In the case of COc1cc2ncnc(Nc3ccc(Cl)c(Cl)c3F)c2cc1NC(=O)/C=C/CN1CCC(OC(F)F)CC1 [Example I-17, (E)-N-[4-(3,4-dichloro-2-fluoro-anilino)-7-methoxy-quinazolin-6-yl]-4-[4-(difluoromethoxy)-1-piperidyl]but-2-enamide], the IC50 is reported as 817 nM. For O=C(/C=C/CN1CCC(OC(F)F)CC1)Nc1cc2c(Nc3cccc(Cl)c3F)ncnc2cc1OCCOC(F)F [Example I-8, (E)-N-[4-(3-chloro-2-fluoro-anilino)-7-[2-(difluoromethoxy)-ethoxy]quinazolin-6-yl]-4-[4-(difluoromethoxy)-1-piperidyl]but-2-enamide], the IC50 was 79.5 nM. With C#Cc1cccc(Nc2ncnc3cc(OCCOC(F)F)c(NC(=O)/C=C/CN(C)C)cc23)c1F [Example I-25, (E)-N-[7-[2-(difluoromethoxy)ethoxy]-4-(3-ethynyl-2-fluoro-anilino)quinazolin-6-yl]-4-(dimethylamino)but-2-enamide] the IC50 was 0.679 nM. With O=C(/C=C/CN1CCOCC1)Nc1cc2c(Nc3cccc(Cl)c3F)ncnc2cc1OCCOC(F)F [Example I-7, (E)-N-[4-(3-chloro-2-fluoro-anilino)-7-[2-(difluoromethoxy)-ethoxy]quinazolin-6-yl]-4-morpholino-but-2-enamide] the IC50 was 10.5 nM. CN(C)C/C=C/C(=O)Nc1cc2c(Nc3cccc(Cl)c3F)ncnc2cc1OCCOC(F)F [Example I-5, (E)-N-[4-(3-chloro-2-fluoro-anilino)-7-[2-(difluoromethoxy)ethoxy]quinazolin-6-yl]-4-(dimethylamino)but-2-enamide] gave an IC50 of 0.707 nM. With CN(C)C/C=C/C(=O)Nc1cc2c(Nc3ccc(Cl)c(Cl)c3F)ncnc2cc1OCCOC(F)F [Example I-2, (E)-N-[4-(3,4-dichloro-2-fluoro-anilino)-7-[2-(difluoromethoxy)ethoxy]quinazolin-6-yl]-4-(dimethylamino)but-2-enamide] the IC50 was 16.4 nM.

System: not listed separately
Assay: Evaluation of P-gp efflux: Caco-2 permeability
Details: human, Caco-2, pH 7.4
Experimental: (§1) At this stage of growth, cell monolayers were fully polarized and differentiated.
(§2) The permeability assay buffer was Hanks Balanced Salt Solution containing 10 mM HEPES and 15 mM glucose at a pH of 7.4. The dosing buffer contained 5 μM metoprolol (positive control), 5 μM atenolol (negative control) and 100 μM lucifer yellow. The buffer in the receiver chamber also contained 1% bovine serum albumin (BSA). The dosing solution concentration was 5 μM in the assay buffer. Digoxin (20 μM) was used as Pgp substrate control.
(§3) The known Pgp inhibitor was co-dosed at 50 μM with compound at 5 μM.
(§4) Cell monolayers were dosed on the apical side (A-to-B) or basolateral side (B-to-A) and incubated at 37° C. in a shaker (65 rpm). Samples were taken from the donor and receiver chambers at 120 minutes. Each determination was performed in duplicate.
(§5) Narrow-window mass extraction LC/MS analysis was performed for all samples from this study using a Waters Xevo quadrupole time-of-flight (QTof) mass spectrometer, to determine relative peak areas of parent compound. The percent of transported drug was calculated based on these peak areas, relative to the initial, dosing concentration.
CC(C)NCC(O)COc1cccc2ccccc12 (stereo not drawn) [Propranolol] gave a Papp A→B at 120 min, 5 µM of 21.1 ×10⁻⁶ cm/s and a Papp B→A at 120 min, 5 µM of 15.8 ×10⁻⁶ cm/s. In the case of C[C@H]1O[C@@H](O[C@H]2[C@@H](O)C[C@H](O[C@H]3[C@@H](O)C[C@H](O[C@H]4CC[C@@]5(C)[C@H](CC[C@@H]6[C@@H]5C[C@@H](O)[C@]5(C)[C@@H](C7=CC(=O)OC7)CC[C@]65O)C4)O[C@@H]3C)O[C@@H]2C)C[C@H](O)[C@@H]1O [Digoxin], the Papp A→B at 120 min, 5 µM is reported as 0.75 ×10⁻⁶ cm/s and the Papp B→A at 120 min, 5 µM is reported as 22.7 ×10⁻⁶ cm/s. COc1cc2nc(N3CCN(C(=O)c4ccco4)CC3)nc(N)c2cc1OC [Prazosin] showed a Papp A→B at 120 min, 5 µM of 21.7 ×10⁻⁶ cm/s and a Papp B→A at 120 min, 5 µM of 34.7 ×10⁻⁶ cm/s.

System: P-gp
Assay: Evaluation of P-gp efflux: Caco-2 permeability
Details: human, Caco-2, pH 7.4
Experimental: as §1, §2, §3, §4, §5
In the case of CC(C)NCC(O)COc1cccc2ccccc12 (stereo not drawn) [Propranolol], the efflux ratio at 120 min, 5 µM is reported as 0.75. C[C@H]1O[C@@H](O[C@H]2[C@@H](O)C[C@H](O[C@H]3[C@@H](O)C[C@H](O[C@H]4CC[C@@]5(C)[C@H](CC[C@@H]6[C@@H]5C[C@@H](O)[C@]5(C)[C@@H](C7=CC(=O)OC7)CC[C@]65O)C4)O[C@@H]3C)O[C@@H]2C)C[C@H](O)[C@@H]1O [Digoxin] showed an efflux ratio at 120 min, 5 µM of 30.4. Work on COc1cc2nc(N3CCN(C(=O)c4ccco4)CC3)nc(N)c2cc1OC [Prazosin] yielded an efflux ratio at 120 min, 5 µM of 1.59.
